Patent publication US20230022724A1, “NOVEL IMIDAZOPYRAZINE DERIVATIVES” (Hoffmann-La Roche Inc., priority 2018, published 2023)
Structures can show the parent of a compound that is named as a salt.

system: Acinetobacter baumannii ATCC17978; assay: Antimicrobial susceptibility testing: 90% growth inhibitory concentration (IC90) determination; type: cell-based; details: 90% growth inhibitory concentration, Acinetobacter baumannii ATCC17978, Iso-Sensitest broth, OD 600 nm over 16 h; read-out: ATCC17978 IC90
Experimental: The in vitro antimicrobial activity of the compounds was determined according to the following procedure:
The assay used a 10-points Iso-Sensitest broth medium to measure quantitatively the in vitro activity of the compounds against Acinetobacter baumannii ATCC17978 and Acinetobacter baumannii ATCC17961.
Stock compounds in DMSO were serially twofold diluted (e.g. range from 50 to 0.097 μM final concentration) in 384 wells microtiter plates and inoculated with 49 μl the bacterial suspension in Iso-Sensitest medium to have a final cell concentration of ˜5×10^(5) CFU/ml in a final volume/well of 50 ul/well. Microtiter plates were incubated at 35±2° C.
Bacterial cell growth was determined with the measurement of optical density at λ=600 nm each 20 minutes over a time course of 16 h. Growth inhibition was calculated during the logarithmic growth of the bacterial cells with determination of the concentration inhibiting 50% (IC50) and 90% (IC90) of the growth.
Table 1 provides the 90% growth inhibitory concentrations (IC90) in micromoles per liter of the compounds of present invention obtained against the strain Acinetobacter baumannii ATCC17978 and Acinetobacter baumannii ATCC17961.

| IC90 | Structure (SMILES) |
| --- | --- |
| 300 nM | COc1ccc(-c2cnc3c(Nc4ccc(C(=O)N5CCC(C(=O)NCC6CNC6)CC5)c(Cl)c4)nccn23)cc1F [Example 19, N-(azetidin-3-ylmethyl)-1-(2-chloro-4-((3-(3-fluoro-4-methoxyphenyl)imidazo[1,2-a]pyrazin-8-yl)amino)benzoyl)piperidine-4-carboxamide] |
| 1200 nM | COc1ccc(-c2cnc3c(Nc4ccc(C(=O)N5CCC(C(=O)N6CCNC(C(=O)O)C6)CC5)c(Cl)c4)nccn23)cc1F (stereo not shown) [Example 59, 4-[1-[2-chloro-4-[[3-(3-fluoro-4-methoxyphenyl)imidazo[1,2-a]pyrazin-8-yl]amino]benzoyl]piperidine-4-carbonyl]piperazine-2-carboxylic acid] |

| Structure (SMILES) | IC90 |
| --- | --- |
| N#CCOc1ccc(-c2cnc3c(Nc4ccc(C(=O)N5CCC(C(=O)OCC6CNCCN6)CC5)c(Cl)c4)nccn23)c(F)c1F (stereo not shown) [Example 83, piperazin-2-ylmethyl 1-[2-chloro-4-[[3-[4-(cyanomethoxy)-2,3-difluorophenyl]imidazo[1,2-a]pyrazin-8-yl]amino]benzoyl]piperidine-4-carboxylate;2,2,2-trifluoroacetic acid] | 140 nM |

same assay, conditions: Acinetobacter baumannii, ATCC17978, 16 h, 90% growth inhibitory concentration, Acinetobacter baumannii ATCC17978, Iso-Sensitest broth, OD 600 nm over 16 h; read-out: ATCC17978 IC90

| Structure (SMILES) | IC90 |
| --- | --- |
| COc1ccc(-c2cnc3c(Nc4ccc(C(=O)N5CCN(CCN(C)C)CC5)c(Cl)c4)nccn23)cc1F [Example 55, [2-chloro-4-[[3-(3-fluoro-4-methoxyphenyl)imidazo[1,2-a]pyrazin-8-yl]amino]phenyl]-[4-[2-(dimethylamino)ethyl]piperazin-1-yl]methanone;hydrochloride] | 140 nM |
| COc1ccc(-c2cnc3c(Nc4ccc(C(=O)N5CCN(CCNC6CC6)CC5)c(Cl)c4)nccn23)cc1F [Example 58, [2-chloro-4-[[3-(3-fluoro-4-methoxyphenyl)imidazo[1,2-a]pyrazin-8-yl]amino]phenyl]-[4-[2-(cyclopropylamino)ethyl]piperazin-1-yl]methanone] | 330 nM |
| N#CCOc1ccc(-c2cnc3c(Nc4ccc(C(=O)N5CCN(CCN6CCC(C(N)=O)C6)CC5)c(Cl)c4)nccn23)c(F)c1F (stereo not shown) [Example 89] | 42 nM |
| CNCCNC(=O)C1CCN(C(=O)c2ccc(Nc3nccn4c(-c5ccc(OCC#N)c(F)c5F)cnc34)cc2Cl)CC1 [Example 32, 1-[2-chloro-4-[[3-[4-(cyanomethoxy)-2,3-difluoro-phenyl]imidazo[1,2-a]pyrazin-8-yl]amino]benzoyl]-N-[2-(methylamino)ethyl]piperidine-4-carboxamide trifluoroacetate] | 300 nM |
| COc1ccc(-c2cnc3c(Nc4ccc(C(=O)N5CCN(Cc6cnc[nH]6)CC5)c(Cl)c4)nccn23)cc1F [Example 72, [2-chloro-4-[[3-(3-fluoro-4-methoxyphenyl)imidazo[1,2-a]pyrazin-8-yl]amino]phenyl]-[4-(1H-imidazol-5-ylmethyl)piperazin-1-yl]methanone] | 510 nM |
| COc1ccc(-c2cnc3c(Nc4ccc(C(=O)N5CCN(C6CCNC6)CC5)c(Cl)c4)nccn23)cc1F (stereo not shown) [Example 71, [2-chloro-4-[[3-(3-fluoro-4-methoxyphenyl)imidazo[1,2-a]pyrazin-8-yl]amino]phenyl]-(4-pyrrolidin-3-ylpiperazin-1-yl)methanone;hydrochloride] | 280 nM |
| COc1ccc(-c2cnc3c(Nc4ccc(C(=O)N5CCN(CCN(C)C)CC5)c(Br)c4)nccn23)cc1F [Example 81, [2-bromo-4-[[3-(3-fluoro-4-methoxyphenyl)imidazo[1,2-a]pyrazin-8-yl]amino]phenyl]-[4-[2-(dimethylamino)ethyl]piperazin-1-yl]methanone;formic acid] | 290 nM |
| N#CCOc1cc(Cl)c(-c2cnc3c(Nc4ccc(C(=O)N5CCC(C(=O)N6CCNC(CO)C6)CC5)c(Cl)c4)nccn23)cc1F (stereo not shown) [Example 15, 2-[5-chloro-4-[8-[3-chloro-4-[4-[3-(hydroxymethyl)piperazine-1-carbonyl]piperidine-1-carbonyl]anilino]imidazo[1,2-a]pyrazin-3-yl]-2-fluoro-phenoxy]acetonitrile; 2,2,2-trifluoroacetic] | 110 nM |

The next lines start with the values.

| IC90 | Structure (SMILES) |
| --- | --- |
| 1500 nM | N#Cc1cc(Nc2nccn3c(-c4ccc(OC(F)F)cc4)cnc23)ccc1C(=O)N1CCC(CN)CC1 [Example 27, 2-(4-(aminomethyl)piperidine-1-carbonyl)-5-((3-(4-(difluoromethoxy)phenyl)imidazo[1,2-a]pyrazin-8-yl)amino)benzonitrile] |
| 140 nM | COc1ccc(-c2cnc3c(Nc4ccc(C(=O)N5CCC(C(=O)NCC(O)CN)CC5)c(Cl)c4)nccn23)cc1F (stereo not shown) [Example 60, N-(3-amino-2-hydroxypropyl)-1-[2-chloro-4-[[3-(3-fluoro-4-methoxyphenyl)imidazo[1,2-a]pyrazin-8-yl]amino]benzoyl]piperidine-4-carboxamide;hydrochloride] |
| 140 nM | NCC1CCN(C(=O)c2ccc(Nc3nccn4c(-c5ccc(OC(F)F)cc5)cnc34)cc2Br)CC1 [Example 5, (4-(aminomethyl)piperidin-1-yl)(2-bromo-4-((3-(4-(difluoromethoxy)phenyl)imidazo[1,2-a]pyrazin-8-yl)amino)phenyl)methanone hydrochloride] |
| 900 nM | COc1ccc(-c2cnc3c(Nc4ccc(C(=O)N5CCC(O)CC5)cc4)nccn23)cc1Cl [Example 62, [4-[[3-(3-chloro-4-methoxyphenyl)imidazo[1,2-a]pyrazin-8-yl]amino]phenyl]-(4-hydroxypiperidin-1-yl)methanone] |
| 5900 nM | COc1ccc(-c2cnc3c(Nc4ccc(C(=O)N5CCC(N(C)C)C5)cc4)nccn23)cc1 (stereo not shown) [Example 66, [3-(dimethylamino)pyrrolidin-1-yl]-[4-[[3-(4-methoxyphenyl)imidazo[1,2-a]pyrazin-8-yl]amino]phenyl]methanone] |
| 100 nM | COc1ccc(-c2cnc3c(Nc4ccc(C(=O)N5CCC(CCN)CC5)c(Cl)c4)nccn23)c(F)c1F [Example 7, (4-(2-aminoethyl)piperidin-1-yl)(2-chloro-4-((3-(2,3-difluoro-4-methoxyphenyl)imidazo[1,2-a]pyrazin-8-yl)amino)phenyl)methanone] |
| 580 nM | COc1ccc(-c2cnc3c(Nc4ccc(C(=O)N5CCOCC5)cc4)nccn23)cc1 [Example 61, [4-[[3-(4-methoxyphenyl)imidazo[1,2-a]pyrazin-8-yl]amino]phenyl]-morpholin-4-ylmethanone] |
| 87 nM | COc1ccc(-c2cnc3c(Nc4ccc(C(=O)N5CCC(CN)CC5)c(Br)c4)nccn23)cc1F [Example 80, [4-(aminomethyl)piperidin-1-yl]-[2-bromo-4-[[3-(3-fluoro-4-methoxyphenyl)imidazo[1,2-a]pyrazin-8-yl]amino]phenyl]methanone] |

same assay, conditions: Acinetobacter baumannii, ATCC17978, 16 h, read-out: ATCC17978 IC90

| Structure (SMILES) | IC90 |
| --- | --- |
| N#CCOc1ccc(-c2cnc3c(Nc4ccc(C(=O)N5CCN(CCN6CCC(O)C6)CC5)c(Cl)c4)nccn23)c(F)c1F (stereo not shown) [Example 95, 2-[4-[8-[3-chloro-4-[4-[2-(3-hydroxypyrrolidin-1-yl)ethyl]piperazine-1-carbonyl]anilino]imidazo[1,2-a]pyrazin-3-yl]-2,3-difluorophenoxy]acetonitrile; 2,2,2-trifluoroacetic acid] | 56 nM |
| CS(=O)(=O)C1CCN(CCN2CCN(C(=O)c3ccc(Nc4nccn5c(-c6ccc(OCC#N)c(F)c6F)cnc45)cc3Cl)CC2)C1 (stereo not shown) [Example 103, 2-[4-[8-[3-chloro-4-[4-[2-(3-methylsulfonylpyrrolidin-1-yl)ethyl]piperazine-1-carbonyl]anilino]imidazo[1,2-a]pyrazin-3-yl]-2,3-difluorophenoxy]acetonitrile; 2,2,2-trifluoroacetic acid] | 180 nM |
| N#CCOc1ccc(-c2cnc3c(Nc4ccc(C(=O)N5CCN(CCN6CC(O)C6)CC5)c(Cl)c4)nccn23)c(F)c1F [Example 96, 2-[4-[8-[3-chloro-4-[4-[2-(3-hydroxyazetidin-1-yl)ethyl]piperazine-1-carbonyl]anilino]imidazo[1,2-a]pyrazin-3-yl]-2,3-difluorophenoxy]acetonitrile; 2,2,2-trifluoroacetic acid] | 73 nM |
| CN(C)C1CN(CCN2CCN(C(=O)c3ccc(Nc4nccn5c(-c6ccc(OCC#N)c(F)c6F)cnc45)cc3Cl)CC2)C1 [Example 102, 2-[4-[8-[3-chloro-4-[4-[2-[3-(dimethylamino)azetidin-1-yl]ethyl]piperazine-1-carbonyl]anilino]imidazo[1,2-a]pyrazin-3-yl]-2,3-difluorophenoxy]acetonitrile; 2,2,2-trifluoroacetic acid] | 170 nM |
| N#CCOc1ccc(-c2cnc3c(Nc4ccc(C(=O)N5CCN(CCN6CCC(CO)C6)CC5)c(Cl)c4)nccn23)c(F)c1F (stereo not shown) [Example 90, 2-[4-[8-[3-chloro-4-[4-[2-[3-(hydroxymethyl)pyrrolidin-1-yl]ethyl]piperazine-1-carbonyl]anilino]imidazo[1,2-a]pyrazin-3-yl]-2,3-difluorophenoxy]acetonitrile; 2,2,2-trifluoroacetic acid] | 43 nM |
| CN(C)CC(=O)N1CCN(C(=O)c2ccc(Nc3nccn4c(-c5ccc(OCC#N)c(F)c5F)cnc34)cc2Cl)CC1 [Example 14, 2-[4-[8-[3-chloro-4-[4-[2-(dimethylamino)acetyl]piperazine-1-carbonyl]anilino]imidazo[1,2-a]pyrazin-3-yl]-2,3-difluoro-phenoxy]acetonitrile; 2,2,2-trifluoroacetic acid] | 28 nM |
